In patent US6638974B1, “Ascorbyl esters for the treatment of cancer” (University of South Florida, priority 1999, dated 2003):

How the values were obtained:
IGF1-R [1] = experiment: IGF1-R expression by Western blotting, PC-1; format: cell-based, hamster; conditions: 150 μM, 24 hours, vs untreated control
Protocol: This inhibition was dose and time dependent. In fact the exposure of PANC-1 cells to different concentrations of Asc-S (e.g. 50, 75, 100, 125, 150, and 200 μM) for 24 hours in the same conditions, inhibited IGF1-R expression in a dose dependent fashion (FIG. 2A).
(§1) The effect of Asc-S on the proliferation of PC-1 and PANC-1 pancreatic tumor cells was studied using MTT assay. The expression of IGF1-R was analyzed by Western blot analysis, using polyclonal IGF1-R antibody (Upstate Biotech). Apoptosis was assessed by in situ hybridization using TUNEL reaction. […] This was associated with significant decrease in IGF1-R expression and increased apoptotic rate as compared to the control. Statistical analysis on the MTT assay was done using Student's T-test.

T98G cells [2] = experiment: MTT cell proliferation assay, T98G; format: cell-based, human; conditions: for inhibition at 50 µM / inhibition at 100 µM / inhibition at 175 µM: Homo sapiens, T98G
Protocol: T98G cell proliferation: Murine (G26) and human glioma (U-373) cell proliferation was inhibited following exposure to ascorbyl esters (Naidu et al., 1993a and 1993b). The cell proliferation was assessed by [^3H] thymidine incorporation and MTT assay (Naidu et al., 1993a, 1993b and 1996). […] The T98G cells were cultured for 24 hours in MEM+10% FBS, and, when confluent, were treated with 0 (untreated control), 50, 75, 100, 125, 150 and 175 μM Asc-S. Appropriate untreated controls were included. The cell proliferation was measured by MTT assay.

PC-1 cells = experiment: MTT cell growth and viability assay, PC-1; format: cell-based, hamster; conditions: different concentrations of Asc-S, 24 hours
Protocol: Cell Growth and Vitality: The effect of Asc-S on PANC-1 and PC-1 cell growth and viability was evaluated by 3-(4,5-dimethylthiazol-2yl)-2,5-diphenyl-tetrazoliumbromide (MTT) (Sigma Chemical Co., St. Louis, Md.) assay and the details of the procedure are as described earlier (Naidu et al., 1993a) PANC-1 cells were seeded at 2.5×10^4 viable cells well in 0.1 ml MEM supplemented with 10% FBS or serum free MEM with 15 nM human recombinant IGF-1 in 96 multiwell tissue culture plates. The following day when the cells were nearly confluent, the medium was replaced with fresh medium and 50, 75, 100, 125, 150, 175 and 200 μM Asc-S were added and incubated in a CO2 incubator at 37° C. for 24 hours with respective untreated controls.
as §1

IGF1-R [3] = experiment: IGF1-R expression by Western immunoblotting, T98G; format: cell-based, human; conditions: 100 μM, 24 hours, MEM+10% FBS
Protocol: The T98G and U-373 cells were cultured for 24 hours in MEM+10% FBS and when confluent were treated with 100 μM and 75 μM, Asc-S for 24 hours, respectively. […] In addition, it was also observed that the inhibition of IGF1-R expression was dose and time dependent. The T98G cells culture in MEM+10% FBS and treated with different concentrations of Asc-S, e.g. 50, 75, 100, 125, 150 and 175 μM for 24 hours, inhibited IGF1-R in a dose dependent fashion (FIG. 8C). The T98G cells treated with 100 μM Asc-S for different time points, e.g. 1, 3, 6, 12 and 24 hours inhibited IGF1-R in a time dependent manner (FIG. 8D). IGF1-R expression was evaluated by Western immunoblotting technique with rabbit-antihuman IGF1-R antibodies (Upstate Biotechnology, Lake Placid, N.Y.) with HRP conjugated anti-rabbit secondary antibody.
The inhibition of IGF1-R expression was also dose and time dependent. […] The following are depicted in FIG. 8B: Lane 1: P6 positive control for IGF1-R […]; Lane 2: untreated T98G cells; Lane 3: Asc-S (125 μM) treated T98G cells. […]

T98G cells [4] = experiment: Cell multiplication cycle, T98G; format: cell-based, human; conditions: 50-175 μM Asc-S
Description: Human glioma cell proliferation and tumorigrenicity are under autocrine control of the insulin like growth factor 1 (IGF-1) and its receptor (IGF-1R). Although it has been known for quite some time that ascorbic acid and its derivatives have anti-proliferative effects on various tumor cells, the precise mechanism of action is unknown. This study presents data on Ascorbyl Stearate (Asc-S) […] glioma (T98G) cell proliferation and transformation. Asc-S inhibited 10% fetal bovine serum (FBS) and human recombinant IGR-1 ([…]) dependent T98G cell proliferation in a dose dependent manner. […] The inhibition of IGF-1 Rs was also time and dose dependent.

With `CCCCCCCCCCCCCCCCCC(=O)OC[C@H](O)[C@H]1OC(=O)C(O)=C1O` [Asc-S, Ascorbyl stearate] the “IGF1-R expression, PC-1 cells (Western blotting)” value (IGF1-R [1]) was “significantly lower number of receptors”, the “T98G cell proliferation (MTT assay)” value (T98G cells [2]; 50-175 μM Asc-S, 24 hours) was “inhibited cell proliferation in a dose dependent manner” and the inhibition at 50 µM (T98G cells [2]; cultured with FBS, 50 μM) was 8.7%. The inhibition at 100 µM (T98G cells [2]; cultured with FBS, 100 μM) was 38.5%, the inhibition at 175 µM (T98G cells [2]; cultured with FBS, 175 μM) was 87.2% and the inhibition at 50 µM (T98G cells [2]; with IGF-1, 50 μM) was 15.3%. The inhibition at 100 µM (T98G cells [2]; with IGF-1, 100 μM) was 54.2%, the inhibition at 175 µM (T98G cells [2]; with IGF-1, 175 μM) was 87.7% and the “PC-1 cell proliferation (MTT assay)” value (PC-1 cells) was “dose dependent inhibition of PC-1 cell proliferation”. For the same compound, the “IGF1-R expression, T98G cells” value (IGF1-R [3]) was “significantly down regulated” and the “cell multiplication cycle, T98G” value (T98G cells [4]) was “arrest of cell multiplication cycle in G1/Go phase”.
